Literature values in US20030114534A1, “Pharmaceutical preparation for apthous ulcers” (priority 2001, published 2003).

System: apthous lesions
Settings: applied locally, 250 mg. in 10 ml. of water, three times a day

For `CN(C)[C@@H]1C(O)=C(C(N)=O)C(=O)[C@@]2(O)C(O)=C3C(=O)c4c(O)ccc(Cl)c4[C@@](C)(O)[C@H]3C[C@@H]12` [Aureomycin], the analgesic effect lasting is listed as “one-half to two”.
